Laboratory results published in patent US4141972A, “Purine nucleoside 5'-phosphate (mono, di or tri) 3'(2')-diphosphates and processes for their preparation” (priority 1974, dated 1979).
Values belong to the molecule of their own block, whether it stands above or below them.

What was measured:
[1] = tested on: nucleotide pyrophosphotransferase, enzymes obtained from the six actinomycetes (Streptomyces adephospholyticus A4668 ATCC 31122, St. aspergilloides ATCC 14808 …); test: Inhibitory action of nucleosides, nucleotides, bases and general enzyme inhibitors on nucleotide pyrophosphotransferase; format: biochemical
Procedure: (1) Inorganic phosphate determination by a modification of Nakamura's method: The standard reaction mixture contained 0.25 M glycine-NaOH buffer (pH 10.0), 0.2 ml.; 0.05 M MgCl2, 0.05 ml.; 0.05 M ATP, 0.05 ml.; the enzyme solution (to be diluted by buffer if necessary), 0.1 ml.; and distilled water, 0.1 ml. in a final volume of 0.5 ml. After incubation at 37° C. for 10 minutes, the reaction was terminated by adding 0.5 ml. of 0.2 N acetic acid, and chilling on ice. Immediately, 3 ml. of developing reagent (amidol-molybdate) was added and the mixture was allowed to stand for 10 minutes at 37° C. The optical density was measured at 750 nm and the moles of Pi released were calculated using the standard curve for Pi.
The reaction mixture contained 20 mM adenosine-8-3H-triphosphate (2 mCi/m mole), 5 mM MgCl2, 62.5 mM glycine-NaOH buffer (pH 10.0) and 0.1 ml. of enzyme solution to give a total volume of 0.2 ml. The mixture was incubated at 37° C. for 10 minutes and the incubation was terminated by addition of 0.01 ml. of 1 N acetic acid. Twenty microliters of the reaction mixture were spotted on a polyethyleneimine (PEI) cellulose F thin layer sheet (E. Merck AG), dried and developed in 0.75 M KH2 PO4, pH 3.4, for two hours at room temperature. After chromatography the sheets were dried and exposed to ultraviolet light provided by a Manasul UV lamp to localize the pppApp and AMP formed. The spots on the chromatograms corresponding to pppApp and AMP were cut out and placed in a scintillation vial containing 0.5 ml. of 0.1 N HCl. Vials were boiled for 15 minutes to elute nucleotides adsorbed on the PEI-cellulose and radioactivity was measured by 10 ml. of BRAY Solution in a liquid scintillation counter. A unit of enzyme activity is defined as the amount of enzyme forming 1μ mole of pppApp or AMP per minute under the above condition.
Inhibitory actions of 40 substances which are general enzyme inhibitors such as nucleosides, nucleotides and their bases were examined for their effect on the enzymes obtained from the six actinomycetes.

L1210 cells = test: Effect of nucleotides on the life span of mice inoculated with L1210 cells; format: in vivo; conditions: for 30 days survivors / MST (mean survival time) / T/C: L1210, mice
From the text: The characteristic of the said nucleotide pyrophosphotransferase is that it inhibits the growth of Hela S3, L1210 and L5178Y cells in culture at a relatively low concentration, 5 to 10 units/ml. […] The nucleotide or enzyme is combined with a conventional pharmaceutically acceptable nontoxic carrier for intraperitoneal administration.
Tumor: L1210, Sloan-Kettering line, 10^5 cells/head, i.p.
MST: Mean survival time

[2] = other nucleic acids, concentration not given
[3] = 5 mg/kg.day i.p. once daily for 10 days
[4] = 10 mg/kg.day i.p. once daily for 10 days
[5] = 20 mg/kg.day i.p. once daily for 10 days
[6] = BDF1 mice, L1210 i.p., i.p. once daily for 10 days
[7] = 10 mM each, non-substrate nucleic acids

Structure (SMILES): Nc1ccn([C@@H]2O[C@H](COP(=O)(O)O)[C@@H](O)[C@H]2O)c(=O)n1 [CMP]
Inhibition of enzyme activity [1, 2]: not inhibitory

Structure (SMILES): O=c1[nH]c(=O)c2[nH]cnc2[nH]1 [xanthine]
Inhibition of enzyme activity [1, 2]: not inhibitory

Structure (SMILES): NC(=O)c1ccc[n+]([C@@H]2O[C@H](COP(=O)([O-])OP(=O)(O)OC[C@H]3O[C@@H](n4cnc5c(N)ncnc54)[C@H](O)[C@@H]3O)[C@@H](O)[C@H]2O)c1 [NAD]
Inhibition of enzyme activity [1, 2]: not inhibitory

Structure (SMILES): Nc1ncnc2c1ncn2[C@@H]1O[C@H](COP(=O)(O)OP(=O)(O)OP(=O)(O)O)[C@@H](O)[C@H]1O [ATP 2Na]
30 days survivors (L1210 cells; [3]): 0/5 | MST (mean survival time) (L1210 cells; [3]): 8.7 days | T/C (L1210 cells; [3]): 98% | 30 days survivors (L1210 cells; [4]): 0/5 | MST (mean survival time) (L1210 cells; [4]): 9.2 days | T/C (L1210 cells; [4]): 103% | 30 days survivors (L1210 cells; [5]): 0/5 | MST (mean survival time) (L1210 cells; [5]): 8.6 days | T/C (L1210 cells; [5]): 97% | Effect on lifespan of tumor-bearing mice (L1210 cells; [6]): not effective

Structure (SMILES): Nc1ncnc2c1ncn2[C@@H]1O[C@H](COP(=O)(O)OP(=O)(O)OP(=O)(O)O)[C@@H](OP(=O)(O)OP(=O)(O)O)[C@H]1O [pppApp 7Li, adenosine 5'-triphosphate 3' (2')-diphosphate]
30 days survivors (L1210 cells; [3]): 1/5 | MST (mean survival time) (L1210 cells; [3]): 14.0 days | T/C (L1210 cells; [3]): 157% | 30 days survivors (L1210 cells; [4]): 1/5 | MST (mean survival time) (L1210 cells; [4]): 12.5 days | T/C (L1210 cells; [4]): 140% | 30 days survivors (L1210 cells; [5]): 2/5 | MST (mean survival time) (L1210 cells; [5]): 16.8 days | T/C (L1210 cells; [5]): 189% | Accumulation of abdominal dropsy (L1210 cells; [6]): distinctly suppressed | Effect on lifespan of tumor-bearing mice (L1210 cells; [6]): prolonged the lifespan | Toxicity to the mice (L1210 cells; [6]): without causing toxicity

Structure (SMILES): Nc1ccn([C@@H]2O[C@H](CO)[C@@H](O)[C@H]2O)c(=O)n1 [cytidine]
Inhibition of enzyme activity [1, 2]: not inhibitory

Structure (SMILES): Nc1nc2nc[nH]c2c(=O)[nH]1 [guanine]
Inhibition of enzyme activity [1, 7]: marked inhibition

Structure (SMILES): O=c1ccn([C@@H]2O[C@H](CO)[C@@H](O)[C@H]2O)c(=O)[nH]1 [uridine]
Inhibition of enzyme activity [1, 2]: not inhibitory

Structure (SMILES): Nc1ncnc2c1ncn2[C@@H]1O[C@H](CO)[C@@H](O)[C@H]1O [adenosine]
Inhibition of enzyme activity [1, 2]: not inhibitory

Structure (SMILES): Nc1ncnc2nc[nH]c12 [adenine]
Inhibition of enzyme activity [1, 2]: not inhibitory

Other lines, results leading:

Inhibition of enzyme activity [1, 7]: marked inhibition
Structure (SMILES): Nc1nc2c(ncn2[C@H]2C[C@H](O)[C@@H](COP(=O)(O)OP(=O)(O)O)O2)c(=O)[nH]1 [d-GDP]

Inhibition of enzyme activity [1, 7]: marked inhibition
Structure (SMILES): Nc1nc2c(ncn2[C@H]2C[C@H](O)[C@@H](COP(=O)(O)OP(=O)(O)OP(=O)(O)O)O2)c(=O)[nH]1 [d-GTP]

Inhibition of enzyme activity [1, 2]: not inhibitory
Structure (SMILES): O=c1[nH]cnc2nc[nH]c12 [hypoxanthine]

Inhibition of enzyme activity [1, 7]: marked inhibition
Structure (SMILES): Nc1nc2c(ncn2[C@@H]2O[C@H](CO)[C@@H](O)[C@H]2O)c(=O)[nH]1 [guanosine]

Inhibition of enzyme activity [1, 2]: not inhibitory
Structure (SMILES): OC[C@H]1O[C@@H](n2cnc3c(O)ncnc32)[C@H](O)[C@@H]1O [inosine]

Inhibition of enzyme activity [1, 2]: not inhibitory
Structure (SMILES): Nc1cc[nH]c(=O)n1 [cytosine]

Inhibition of enzyme activity [1, 2]: not inhibitory
Structure (SMILES): O=c1cc[nH]c(=O)[nH]1 [uracil]
